# Test results from paper PMC9271048, “Probing strigolactone perception mechanisms with rationally designed small-molecule agonists stimulating germination of root parasitic weeds” (Nature Communications, 2022).
# Like-named read-outs stand apart in the source and are kept apart here.
# What was measured:
# ShHTL7 [1] = molecular target: T1, ShHTL7 (Striga hermonthica, UniProt A0A0M3PNA2); experiment: biochemical; assay type: binding; settings: Supplementary Table 7; binding affinities between ShHTL7 and agonists by SPR; read-out: KD/μM
# T1 sequence (A0A0M3PNA2 entry or part of it): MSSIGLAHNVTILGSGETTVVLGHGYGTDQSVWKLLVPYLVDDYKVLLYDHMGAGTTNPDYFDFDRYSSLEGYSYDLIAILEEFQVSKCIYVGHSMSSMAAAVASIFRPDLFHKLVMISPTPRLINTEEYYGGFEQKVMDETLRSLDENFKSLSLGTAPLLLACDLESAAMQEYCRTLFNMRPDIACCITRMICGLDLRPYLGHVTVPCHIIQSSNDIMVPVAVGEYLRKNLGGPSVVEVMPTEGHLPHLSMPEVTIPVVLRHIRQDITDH
# Summary of the method: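 Surface plasmon resonance was run at 25 °C on ShHTL7 immobilized by amine coupling, using phosphate-buffered saline with 0.05% P20 and 0.5% DMSO. Each injection had 1 min association and 1 min dissociation, with a 50 μM screen followed by concentration series. KD was derived by kinetic analysis or steady-state affinity.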
# ShHTL7 [2] = molecular target: T1, ShHTL7; experiment: ShHTL7-hydrolysis reaction analysis (HPLC); assay type: biochemical; settings: 10 μM compound, 30 °C, 30 min; for relative percentage of hydrolysis by ShHTL7, source data average: Supplementary Figs. 11, 20a, 24a
# Summary of the method: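 Compounds at 10 μM were incubated with 10 μg recombinant ShHTL7 or its mutants in PBS (pH 7.3) at 30 °C for 30 min, then quenched with methanol. The remaining compound was quantified by HPLC, and hydrolysis was expressed relative to a protein-free buffer control (n = 3).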
# [3] = system: ShHTLs (10 HTL proteins in S. hermonthica); experiment: YLG-based competition assay on HTL proteins of S. hermonthica; assay type: biochemical, Striga hermonthica; settings: Supplementary Fig. 27
# Source text: In P. aegyptiaca, 5 KAI2s have been proposed as the SL receptors for the regulation of seed germination. […] The high sequence similarity may explain the consistency of these compounds in inducing germination in both S. hermonthica and P. aegyptiaca.
# The excitation and emission wavelengths of YLG are 480 and 520 nm, respectively. We used a fluorescence spectrophotometer (CARY Eclipse) to detect the fluorescence intensity change of YLG during the enzymatic hydrolysis assay process. All the testing compounds and YLG were dissolved in DMSO and prepared as stock solutions just before use. […] The changes of fluorescence at 520 nm of each well were recorded every 1 min for 30 min. Using the reaction mixture without adding enzyme and tested compounds as the background control. After subtracting the background hydrolysis, a linear fluorescence increase in 8 min was used for further inspection. The IC50 values were determined via fitting relative inhibition percentages with the varying concentrations of compounds in Microsoft Excel.
# Supplementary Fig. 27. Binding of compounds 4a, (R)- and (S)-4a, and 4g-i to the HTL proteins in S. hermonthica and KAI2 protein homologs in P. aegyptiaca. In the competitive inhibitory activity assay, YLG (3 µM) was used as the fluorogenic substrate. Error bar indicates SD (n = 3 biologically independent experiments).
# (1 picture or pasted object on this page, not shown here)
# [4] = ShHTL2, YLG competition, read-out: IC50, replicate 1
# [5] = ShHTL2, YLG competition, read-out: IC50, replicate 2
# [6] = ShHTL2, YLG competition, read-out: IC50, replicate 3
# [7] = ShHTL2, average of 3 replicates, read-out: IC50, average
# [8] = ShHTL3, YLG competition, read-out: IC50, replicate 1
# [9] = ShHTL3, YLG competition, read-out: IC50, replicate 2
# [10] = ShHTL3, YLG competition, read-out: IC50, replicate 3
# [11] = ShHTL3, average of 3 replicates, read-out: IC50, average
# [12] = ShHTL4, YLG competition, read-out: IC50, replicate 1
# [13] = ShHTL4, YLG competition, read-out: IC50, replicate 2
# [14] = ShHTL4, YLG competition, read-out: IC50, replicate 3
# [15] = ShHTL4, average of 3 replicates, read-out: IC50, average
# [16] = ShHTL5, YLG competition, read-out: IC50, replicate 1
# [17] = ShHTL5, YLG competition, read-out: IC50, replicate 2
# [18] = ShHTL5, YLG competition, read-out: IC50, replicate 3
# [19] = ShHTL5, average of 3 replicates, read-out: IC50, average
# [20] = ShHTL6, YLG competition, read-out: IC50, replicate 1
# [21] = ShHTL6, YLG competition, read-out: IC50, replicate 2
# [22] = ShHTL6, YLG competition, read-out: IC50, replicate 3
# [23] = ShHTL6, average of 3 replicates, read-out: IC50, average
# [24] = ShHTL8, YLG competition, read-out: IC50, replicate 1
# [25] = ShHTL8, YLG competition, read-out: IC50, replicate 2
# [26] = ShHTL8, YLG competition, read-out: IC50, replicate 3
# [27] = ShHTL8, average of 3 replicates, read-out: IC50, average
# [28] = ShHTL9, YLG competition, read-out: IC50, replicate 1
# [29] = ShHTL9, YLG competition, read-out: IC50, replicate 2
# [30] = ShHTL9, YLG competition, read-out: IC50, replicate 3
# [31] = ShHTL9, average of 3 replicates, read-out: IC50, average
# [32] = ShHTL10, YLG competition, read-out: IC50, replicate 1
# [33] = ShHTL10, YLG competition, read-out: IC50, replicate 2
# [34] = ShHTL10, YLG competition, read-out: IC50, replicate 3
# [35] = ShHTL10, average of 3 replicates, read-out: IC50, average
# [36] = ShHTL11, YLG competition, read-out: IC50, replicate 1
# [37] = ShHTL11, YLG competition, read-out: IC50, replicate 2
# [38] = ShHTL11, YLG competition, read-out: IC50, replicate 3
# [39] = ShHTL11, average of 3 replicates, read-out: IC50, average
smiles,measurement,setting,value
CC1=CC(CC(=O)N2CCN(C(=O)COc3ccc(Br)cc3C)CC2)OC1=O (centres unmarked) [4i],Kd,ShHTL7 [1],2.93 ± 0.087 µM
same,"relative percentage of hydrolysis by ShHTL7, source data average",ShHTL7 [2],-2.582%
same,IC50,[3]; [4],50.6 µM
same,IC50,[3]; [5],70.1 µM
same,IC50,[3]; [6],65.1 µM
same,IC50,[3]; [7],61.9 µM
same,IC50,[3]; [8],> 100 µM
same,IC50,[3]; [9],> 100 µM
same,IC50,[3]; [10],> 100 µM
same,IC50,[3]; [11],> 100 µM
same,IC50,[3]; [12],15 µM
same,IC50,[3]; [13],21.2 µM
same,IC50,[3]; [14],16.4 µM
same,IC50,[3]; [15],17.5 µM
same,IC50,[3]; [16],48.9 µM
same,IC50,[3]; [17],42.2 µM
same,IC50,[3]; [18],43 µM
same,IC50,[3]; [19],44.7 µM
same,IC50,[3]; [20],79.2 µM
same,IC50,[3]; [21],55 µM
same,IC50,[3]; [22],69.4 µM
same,IC50,[3]; [23],67.9 µM
same,IC50,[3]; [24],72.8 µM
same,IC50,[3]; [25],71.1 µM
same,IC50,[3]; [26],75.4 µM
same,IC50,[3]; [27],73.1 µM
same,IC50,[3]; [28],22.6 µM
same,IC50,[3]; [29],24.8 µM
same,IC50,[3]; [30],12.7 µM
same,IC50,[3]; [31],20.1 µM
same,IC50,[3]; [32],69.6 µM
same,IC50,[3]; [33],67.6 µM
same,IC50,[3]; [34],57.8 µM
same,IC50,[3]; [35],65 µM
same,IC50,[3]; [36],91.9 µM
same,IC50,[3]; [37],101 µM
same,IC50,[3]; [38],86 µM
same,IC50,[3]; [39],93 µM
CC1=C[C@@H](OC(=O)N2CCN(C(=O)COc3ccc(Br)cc3C)CC2)OC1=O [(R)-4a],Kd,ShHTL7 [1],1.69 ± 0.04 µM
same,hydrolysis by ShHTL7,ShHTL7 [2],3.1%
same,"relative percentage of hydrolysis by ShHTL7, source data average",ShHTL7 [2],3.081%
same,IC50,[3]; [4],69.7 µM
same,IC50,[3]; [5],64.8 µM
same,IC50,[3]; [6],63.8 µM
same,IC50,[3]; [7],66.1 µM
same,IC50,[3]; [8],62.1 µM
same,IC50,[3]; [9],76.7 µM
same,IC50,[3]; [10],63.2 µM
same,IC50,[3]; [11],67.3 µM
same,IC50,[3]; [12],22.9 µM
same,IC50,[3]; [13],19.8 µM
same,IC50,[3]; [14],20.3 µM
same,IC50,[3]; [15],21 µM
same,IC50,[3]; [16],48.9 µM
same,IC50,[3]; [17],46.9 µM
same,IC50,[3]; [18],35.9 µM
same,IC50,[3]; [19],43.9 µM
same,IC50,[3]; [20],> 100 µM
same,IC50,[3]; [21],> 100 µM
same,IC50,[3]; [22],> 100 µM
same,IC50,[3]; [23],> 100 µM
same,IC50,[3]; [24],58.4 µM
same,IC50,[3]; [25],53.3 µM
same,IC50,[3]; [26],69.9 µM
same,IC50,[3]; [27],60.5 µM
same,IC50,[3]; [28],50.2 µM
same,IC50,[3]; [29],43.9 µM
same,IC50,[3]; [30],47.8 µM
same,IC50,[3]; [31],47.3 µM
same,IC50,[3]; [32],59.5 µM
same,IC50,[3]; [33],43.4 µM
same,IC50,[3]; [34],54.6 µM
same,IC50,[3]; [35],52.5 µM
same,IC50,[3]; [36],> 100 µM
same,IC50,[3]; [37],> 100 µM
same,IC50,[3]; [38],> 100 µM
same,IC50,[3]; [39],> 100 µM
CC1=C[C@H](OC(=O)N2CCN(C(=O)COc3ccc(Br)cc3C)CC2)OC1=O [(S)-4a],Kd,ShHTL7 [1],0.79 ± 0.06 µM
same,hydrolysis by ShHTL7,ShHTL7 [2],40.1%
same,"relative percentage of hydrolysis by ShHTL7, source data average",ShHTL7 [2],40.0583%
same,IC50,[3]; [4],44 µM
same,IC50,[3]; [5],49.8 µM
same,IC50,[3]; [6],48.4 µM
same,IC50,[3]; [7],47.4 µM
same,IC50,[3]; [8],16.8 µM
same,IC50,[3]; [9],15.4 µM
same,IC50,[3]; [10],14.7 µM
same,IC50,[3]; [11],15.7 µM
same,IC50,[3]; [12],2.17 µM
same,IC50,[3]; [13],2.91 µM
same,IC50,[3]; [14],2.59 µM
same,IC50,[3]; [15],2.56 µM
same,IC50,[3]; [16],5.38 µM
same,IC50,[3]; [17],6.82 µM
same,IC50,[3]; [18],5.43 µM
same,IC50,[3]; [19],5.88 µM
same,IC50,[3]; [20],9.92 µM
same,IC50,[3]; [21],6.62 µM
same,IC50,[3]; [22],7.62 µM
same,IC50,[3]; [23],8.05 µM
same,IC50,[3]; [24],12 µM
same,IC50,[3]; [25],7.84 µM
same,IC50,[3]; [26],5.8 µM
same,IC50,[3]; [27],8.54 µM
same,IC50,[3]; [28],10.9 µM
same,IC50,[3]; [29],19 µM
same,IC50,[3]; [30],16.2 µM
same,IC50,[3]; [31],15.4 µM
same,IC50,[3]; [32],11.7 µM
same,IC50,[3]; [33],11.6 µM
same,IC50,[3]; [34],12.8 µM
same,IC50,[3]; [35],12 µM
same,IC50,[3]; [36],6.48 µM
same,IC50,[3]; [37],5.76 µM
same,IC50,[3]; [38],3.77 µM
same,IC50,[3]; [39],5.34 µM
